Results taken from publication PMC10046020, “In Silico Screening and Optimization of Cell-Penetrating Peptides Using Deep Learning Methods” (Biomolecules, 2023).
Like-named read-outs stand apart in the source and are kept apart here. Peptide text beside a SMILES is read from it. * marks the point of attachment. FITC = O=C1OC2(c3ccc(O)cc3Oc3cc(O)ccc32)c2ccc(NC(=S)*)cc21; Ahx = NCCCCCC(=O)O

How the values were obtained:
[1] = cited from earlier work
Text: Supplement biomolecules-13-00522-s001.zip/biomolecules-2162660_Supplementary Spreadsheets S1 Test Set.csv, table | column: class || Supplement biomolecules-13-00522-s001.zip/biomolecules-2162660_Supplementary Spreadsheets S2 Train Set.csv, table | column: class

[2] = Spreadsheet S1: 150 CPP and 150 non-CPP peptides collected from CellPPD, MLCPP, CPPsite 2.0, Lifetein and other publications

Procedure for MCF-7 cells: MCF-7 cells are maintained in Roswell Park Memorial Institute 1640 medium supplemented with 10% fetal bovine serum and 1% antibiotics at 37 °C in an atmosphere of 5% CO2 in the air. Cells are cultured in a 35-mm plate at a density of 5 × 10^5 cells in growth medium, incubated overnight, and then treated with 1 µM FITC-conjugated peptide for 1 h at 37 °C in a CO2 incubator.
The cultured cells are harvested, washed twice with phosphate-buffered saline (PBS), treated with trypsin for 5 min, washed with PBS again, and then resuspended in 1 mL of 2% paraformaldehyde in PBS. Cells were then transferred to a fluorescence-activated cell sorting tube and analyzed by flow cytometry using a Novocyte flow cytometer (Agilent, Santa Clara, CA, USA).

Compound	class (CPP / Non-CPP), Test Set [1, 2]	further results
CSCC[C@H](NC(=O)CCCCCNC(=S)Nc1ccc2c(c1)C(=O)OC21c2ccc(O)cc2Oc2cc(O)ccc21)C(=O)N[C@@H](CC(C)C)C(=O)N1CCC[C@H]1C(=O)NCC(=O)N[C@@H](CC(C)C)C(=O)N[C@@H](C)C(=O)N[C@@H](CC(C)C)C(=O)N[C@@H](CC(C)C)C(=O)N[C@@H](CC(C)C)C(=O)N[C@@H](CC(C)C)C(=O)N[C@@H](C)C(=O)N[C@@H](C)C(=O)N[C@@H](Cc1c[nH]c2ccccc12)C(=O)N[C@H](C(=O)N[C@@H](C)C(=O)N[C@@H](CCCNC(=N)N)C(=O)N[C@@H](C)C(N)=O)[C@@H](C)O [Peptide 1] ({FITC-Ahx}-MLPGLALLLLAAWTARA-NH2)		Permeability (MCF-7 cells): 10.40%
CSCC[C@H](NC(=O)CCCCCNC(=S)Nc1ccc2c(c1)C(=O)OC21c2ccc(O)cc2Oc2cc(O)ccc21)C(=O)N[C@@H](CC(C)C)C(=O)N[C@@H](CCCCN)C(=O)N[C@@H](Cc1c[nH]cn1)C(=O)N[C@@H](CC(C)C)C(=O)N[C@@H](C)C(=O)N[C@@H](CC(C)C)C(=O)N[C@@H](CC(C)C)C(=O)N[C@@H](CC(C)C)C(=O)N[C@@H](CC(C)C)C(=O)N[C@@H](C)C(=O)N[C@@H](C)C(=O)N[C@@H](Cc1c[nH]c2ccccc12)C(=O)N[C@@H](CCCCN)C(=O)N[C@@H](C)C(=O)N[C@@H](CCCNC(=N)N)C(=O)N[C@@H](C)C(N)=O [Peptide 7] ({FITC-Ahx}-MLKHLALLLLAAWKARA-NH2)		Permeability (MCF-7 cells): 59.07%
CSCC[C@H](NC(=O)CCCCCNC(=S)Nc1ccc2c(c1)C(=O)OC21c2ccc(O)cc2Oc2cc(O)ccc21)C(=O)N[C@@H](CCCCN)C(=O)N1CCC[C@H]1C(=O)NCC(=O)N[C@@H](CC(C)C)C(=O)N[C@@H](C)C(=O)N[C@@H](CC(C)C)C(=O)N[C@@H](CC(C)C)C(=O)N[C@@H](CC(C)C)C(=O)N[C@@H](CC(C)C)C(=O)N[C@@H](C)C(=O)N[C@@H](C)C(=O)N[C@@H](CCCCN)C(=O)N[C@@H](CCCCN)C(=O)N[C@@H](C)C(=O)N[C@@H](CCCNC(=N)N)C(=O)N[C@@H](C)C(N)=O [Peptide 10] ({FITC-Ahx}-MKPGLALLLLAAKKARA-NH2)		cell permeability compared to the WT peptide (MCF-7 cells): lower cell permeability than the WT CPP
CSCC[C@H](NC(=O)CCCCCNC(=S)Nc1ccc2c(c1)C(=O)OC21c2ccc(O)cc2Oc2cc(O)ccc21)C(=O)N[C@@H](CC(C)C)C(=O)N1CCC[C@H]1C(=O)NCC(=O)N[C@@H](CC(C)C)C(=O)N[C@@H](C)C(=O)N[C@@H](CC(C)C)C(=O)N[C@@H](CC(C)C)C(=O)N[C@@H](CCCCN)C(=O)N[C@@H](CC(C)C)C(=O)N[C@@H](C)C(=O)N[C@@H](C)C(=O)N[C@@H](Cc1c[nH]c2ccccc12)C(=O)N[C@H](C(=O)N[C@@H](C)C(=O)N[C@@H](CCCNC(=N)N)C(=O)N[C@@H](C)C(N)=O)[C@@H](C)O [Peptide 2] ({FITC-Ahx}-MLPGLALLKLAAWTARA-NH2)		cell permeability compared to the WT peptide (MCF-7 cells): lower cell permeability than the WT CPP
WELVVLGYGRKKRRQRRR	CPP	
NAGGWFSSWFFSNTANEDQDDMLPSTSAAAGETNYARN	Non-CPP	
WEAVVAYGRKKRRQRRR	CPP	
CRKKRRQRRR	CPP	
ACRGRGRRCGSGRRSCG	CPP	
GWTNLSAGCLLGPPPGFSPFR	Non-CPP	
MLPRLICINDYEQHAKSVLPKSIYDYYRSGANDEE	Non-CPP	
YGRGGRRGRRR		class (CPP / Non-CPP), Test Set [1]: CPP
HATKSQNINF		class (CPP / Non-CPP), Test Set [1]: CPP
PKKKRKVRRRRRRRPQMQQNVFQYPGAGMVPQGEANF	CPP	
